Results from patent EP1169641B1, “PROTEOME MINING” (THE UNIVERSITY OF VIRGINIA PATENT FOUNDATION, priority 1999, dated 2000).

Target: T1, purified human ADE2 (Homo sapiens, UniProt P22234)
T1 sequence (P22234 1-425): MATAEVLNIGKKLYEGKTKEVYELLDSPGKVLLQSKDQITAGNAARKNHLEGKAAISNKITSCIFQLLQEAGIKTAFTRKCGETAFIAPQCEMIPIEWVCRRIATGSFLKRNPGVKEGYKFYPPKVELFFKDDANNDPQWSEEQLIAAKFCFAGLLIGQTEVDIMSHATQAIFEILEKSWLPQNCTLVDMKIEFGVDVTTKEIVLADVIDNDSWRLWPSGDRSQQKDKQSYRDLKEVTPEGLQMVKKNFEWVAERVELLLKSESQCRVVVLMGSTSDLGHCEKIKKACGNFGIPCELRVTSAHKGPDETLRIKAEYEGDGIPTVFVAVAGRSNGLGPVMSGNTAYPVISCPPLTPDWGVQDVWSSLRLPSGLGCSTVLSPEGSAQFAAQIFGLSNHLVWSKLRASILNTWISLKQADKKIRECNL
Assay: Assay of purified ADE2 (apparent Ki)
Type: biochemical
Conditions: apparent Ki for ADE2, three separate experiments, read-out: Ki^-1
Experimental: All assays were performed against purified human ADE2. Results shown are from three separate experiments. Compounds that eluted HSP90 selectively had no effect of ADE2 activity in vitro at µM concentrations. […] Table 2. Determination of apparent Ki for ADE2 against GA structural analogs

Ki: 62.5 µM
Compound: CO[C@H]1/C=C\C=C(/C)C(=O)NC2=CC(=O)C(NCCN(C)C)=C(C[C@@H](C)C[C@H](OC)[C@H](O)[C@@H](C)/C=C(\C)[C@@H]1OC(N)=O)C2=O [Inhibitor 707545]
